Experimental data as given in BindingDB's records for patent US20250195475 (Inventisbio, 2025).

Target: Cyclin-dependent kinase 2/G1/S-specific cyclin-E1 (Homo sapiens, UniProt P24941+P24864)
Experiment: TR-FRET Assay
Method: Compound Preparation. Dissslove the compounds into DMSO solution to make 10 mM DMSO stock. Serially dilute the stock solution from highest concentration down to lowest in DMSO to make the compound stock plate (100× stock plates). To make 5× compound intermediate plate, add 38 μL of assay buffer (50 mM HEPES, pH 7.5, 0.05 mg/mL BSA, 10 mM MgCl2, 1 mM EGTA, 0.01% Tween-20, 2 mM DTT) into each well of the V-bottom plate; then transfer 2 μL of the stock compound solution of each concentration from the compound stock plate (100× stock), and mix well. Enzyme reaction. Transfer 2 μL compound from 5× intermediate plate into assay plate, then add 4 μL/well 2.5× Enzyme mix to assay plate, incubation for 10 min at room temperature. For positive control wells, add 4 μL/well assay buffer instead of Enzyme mix. Then add 4 μL/well 2.5× Substrate mix to assay plate, and incubation at 25° C. for 30 min at room temperature. After reaction, 10 μL 2× Detection mix (final 15 mM EDTA, 1× LANCE Detection Buffer, 0.5 nM Detection antibody) was added and incubated for 1 h prior to detection with excitation and emission at 320 and 665 nm (Tecan Spark TR-FRET mode Tecan).

IC50: 0.8 nM
Compound: COCc1cc(C(=O)Nc2cc([C@H]3CC[C@@H](OC(=O)N4CCC5(CCC5)C4)C3)[nH]n2)n(C)n1 [US20250195475, Example 6]
